Measurements: US20060069132A1, “Azolecarboxamide herbicides” (priority 2004, published 2006)

Experiments:
[1] = system: Surinam grass; test: Test C pre-/postemergence herbicide test; assay type: in vivo, Urochloa decumbens; conditions: preemergence
Outline: (§1)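 Visual injury scores run from 0 (no effect) to 100 (complete control), assessed relative to untreated controls 12 to 14 days after treatment in the greenhouse. Chemicals were formulated in a non-phytotoxic solvent mixture with surfactant and applied to soil after planting or to emerged plants at the 1- to 4-leaf stage.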

[2] = system: corn; test: Test C pre-/postemergence herbicide test; assay type: in vivo, Zea mays; conditions: preemergence
Outline: as §1

[3] = system: woolly cupgrass; test: Test C pre-/postemergence herbicide test; assay type: in vivo, Eriochloa villosa; conditions: preemergence
Outline: as §1

[4] = system: goosegrass; test: Test C pre-/postemergence herbicide test; assay type: in vivo, Eleusine indica; conditions: preemergence
Outline: as §1

[5] = system: kochia; test: Test C pre-/postemergence herbicide test; assay type: in vivo, Kochia scoparia; conditions: preemergence
Outline: as §1

[6] = system: lambsquarters; test: Test C pre-/postemergence herbicide test; assay type: in vivo, Chenopodium album; conditions: preemergence
Outline: as §1

[7] = system: morningglory; test: Test C pre-/postemergence herbicide test; assay type: in vivo, Ipomoea coccinea; design: key to Plant response rating, Morningglory: 0 = no effect, 100 = complete control; conditions: preemergence
Outline: as §1

[8] = system: yellow nutsedge; test: Test C pre-/postemergence herbicide test; assay type: in vivo, Cyperus esculentus; conditions: preemergence
Outline: as §1

[9] = system: pigweed; test: Test C pre-/postemergence herbicide test; assay type: in vivo, Amaranthus retroflexus; conditions: preemergence
Outline: as §1

[10] = system: soybean; test: Test C pre-/postemergence herbicide test; assay type: in vivo, Glycine max; conditions: preemergence
Outline: as §1

[11] = system: smallflower umbrella sedge; test: Test C flooded paddy test; assay type: in vivo, Cyperus difformis; conditions: for Plant response rating, Sedge, Umbrella: 500 g ai/ha, visual rating after 12 to 14 days
[12] = system: barnyardgrass; test: Test C flooded paddy test; assay type: in vivo, Echinochloa crus-galli; conditions: for Plant response rating, Barnyardgrass: 500 g ai/ha, visual rating after 12 to 14 days
Outline: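 Postemergence sprays applied to plants 2 to 18 cm tall (1- to 4-leaf stage); paddy species grown to 2-leaf stage under flooding. After 12 to 14 days in greenhouse, visual rating versus untreated controls on 0–100 scale (0 no effect, 100 complete control).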

[13] = 500 g ai/ha, scale 0 to 100 (0 no effect, 100 complete control), visual, 12 to 14 days
[14] = 125 g ai/ha, scale 0 (no effect) to 100 (complete control), visual, 12 to 14 days
[15] = 125 g ai/ha, scale 0 to 100 (0 no effect, 100 complete control)
[16] = 250 g ai/ha, scale of 0 to 100, 0 is no effect, 100 is complete control
[17] = scale 0 to 100 (0 no effect, 100 complete control)
[18] = 62 g ai/ha, scale 0 to 100 (0 no effect, 100 complete control)

CCN(C)C(=O)c1ccc(F)c(NC(=O)C2CC(C(C)(C)C)=NN2CC)c1 (racemic) [Compound 307]
Plant response rating, Surinam Grass ([1]; 62 g ai/ha, scale 0 to 100): 70 | Plant response rating, Surinam Grass ([1]; 250 g ai/ha, scale 0-100): 90 | Plant response rating, Surinam Grass [1, 13]: 90 | Plant response rating, Corn ([2]; 62 g ai/ha, scale 0 to 100): 0 | Plant response rating, Corn [2, 14]: 20 | Plant response rating, Corn ([2]; 250 g ai/ha, scale 0-100): 30 | Plant response rating, Corn [2, 13]: 45 | Plant response rating, Cupgrass, Woolly ([3]; 62 g ai/ha, scale 0 to 100): 5 | Plant response rating, Cupgrass, Woolly [3, 14]: 40 | Plant response rating, Cupgrass, Woolly ([3]; 250 g ai/ha, scale 0-100): 70 | Plant response rating, Cupgrass, Woolly [3, 13]: 85 | Plant response rating, Goosegrass ([4]; 62 g ai/ha, scale 0 to 100): 90 | Plant response rating, Goosegrass [4, 14]: 95 | Plant response rating, Goosegrass ([4]; 250 g ai/ha, scale 0-100): 100 | Plant response rating, Goosegrass [4, 13]: 100 | Plant response rating, Kochia ([5]; 62 g ai/ha, scale 0 to 100): 100 | Plant response rating, Kochia [5, 14]: 100 | Plant response rating, Kochia ([5]; 250 g ai/ha, scale 0-100): 100 | Plant response rating, Kochia [5, 13]: 100 | Plant response rating, Lambsquarters ([6]; 62 g ai/ha, scale 0 to 100): 100 | Plant response rating, Lambsquarters [6, 14]: 100 | Plant response rating, Lambsquarters ([6]; 250 g ai/ha, scale 0-100): 100 | Plant response rating, Lambsquarters [6, 13]: 100 | Plant response rating, Morningglory ([7]; 62 g ai/ha, scale 0 to 100): 0 | Plant response rating, Morningglory [7, 14]: 10 | Plant response rating, Morningglory ([7]; 250 g ai/ha, scale 0-100): 10 | Plant response rating, Morningglory [7, 13]: 15 | Plant response rating, Nutsedge, Yellow ([8]; 62 g ai/ha, scale 0 to 100): 5 | Plant response rating, Nutsedge, Yellow [8, 14]: 20 | Plant response rating, Nutsedge, Yellow ([8]; 250 g ai/ha, scale 0-100): 50 | Plant response rating, Nutsedge, Yellow [8, 13]: 50 | Plant response rating, Pigweed ([9]; 62 g ai/ha, scale 0 to 100): 100 | Plant response rating, Pigweed [9, 14]: 100 | Plant response rating, Pigweed ([9]; 250 g ai/ha, scale 0-100): 100 | Plant response rating, Pigweed [9, 13]: 100 | Plant response rating, Soybean ([10]; 62 g ai/ha, scale 0 to 100): 40 | Plant response rating, Soybean ([10]; 250 g ai/ha, scale 0-100): 80 | Plant response rating, Soybean [10, 13]: 100 | Sedge, Umbrella plant response rating ([11]; 62 g ai/ha, scale 0 to 100): 40 | Sedge, Umbrella plant response rating [11, 15]: 70 | Sedge, Umbrella plant response rating [11, 16]: 80 | Plant response rating, Sedge, Umbrella [11, 17]: 85 | Barnyardgrass plant response rating [12, 18]: 30 | Barnyardgrass plant response rating [12, 15]: 65 | Barnyardgrass plant response rating [12, 16]: 80 | Plant response rating, Barnyardgrass [12, 17]: 95

CCC1=NN(C(C)(C)C)CC1C(=O)Nc1cc(C(=O)N(C)C)ccc1F (racemic) [Compound 343]
Plant response rating, Surinam Grass ([1]; 62 g ai/ha, scale 0 to 100): 60 | Plant response rating (0 = no effect, 100 = complete control), Surinam Grass ([1]; 125 g ai/ha): 85 | Plant response rating, Surinam Grass ([1]; 250 g ai/ha, scale 0-100): 100 | Plant response rating, Surinam Grass [1, 13]: 100 | Plant response rating, Corn ([2]; 62 g ai/ha, scale 0 to 100): 40 | Plant response rating (0 = no effect, 100 = complete control), Corn ([2]; 125 g ai/ha): 70 | Plant response rating, Corn ([2]; 250 g ai/ha, scale 0-100): 70 | Plant response rating, Corn [2, 13]: 80 | Plant response rating, Cupgrass, Woolly ([3]; 62 g ai/ha, scale 0 to 100): 40 | Plant response rating (0 = no effect, 100 = complete control), Cupgrass, Woolly ([3]; 125 g ai/ha): 65 | Plant response rating, Cupgrass, Woolly ([3]; 250 g ai/ha, scale 0-100): 70 | Plant response rating, Cupgrass, Woolly [3, 13]: 100 | Plant response rating, Goosegrass ([4]; 62 g ai/ha, scale 0 to 100): 60 | Plant response rating (0 = no effect, 100 = complete control), Goosegrass ([4]; 125 g ai/ha): 75 | Plant response rating, Goosegrass ([4]; 250 g ai/ha, scale 0-100): 80 | Plant response rating, Goosegrass [4, 13]: 85 | Plant response rating, Kochia ([5]; 62 g ai/ha, scale 0 to 100): 90 | Plant response rating (0 = no effect, 100 = complete control), Kochia ([5]; 125 g ai/ha): 100 | Plant response rating, Kochia ([5]; 250 g ai/ha, scale 0-100): 100 | Plant response rating, Kochia [5, 13]: 100 | Plant response rating, Lambsquarters ([6]; 62 g ai/ha, scale 0 to 100): 100 | Plant response rating (0 = no effect, 100 = complete control), Lambsquarters ([6]; 125 g ai/ha): 100 | Plant response rating, Lambsquarters ([6]; 250 g ai/ha, scale 0-100): 100 | Plant response rating, Lambsquarters [6, 13]: 100 | Plant response rating, Morningglory ([7]; 62 g ai/ha, scale 0 to 100): 5 | Plant response rating (0 = no effect, 100 = complete control), Morningglory ([7]; 125 g ai/ha): 60 | Plant response rating, Morningglory ([7]; 250 g ai/ha, scale 0-100): 100 | Plant response rating, Morningglory [7, 13]: 100 | Plant response rating, Nutsedge, Yellow ([8]; 62 g ai/ha, scale 0 to 100): 5 | Plant response rating (0 = no effect, 100 = complete control), Nutsedge, Yellow ([8]; 125 g ai/ha): 10 | Plant response rating, Nutsedge, Yellow ([8]; 250 g ai/ha, scale 0-100): 60 | Plant response rating, Nutsedge, Yellow [8, 13]: 90 | Plant response rating, Pigweed ([9]; 62 g ai/ha, scale 0 to 100): 80 | Plant response rating (0 = no effect, 100 = complete control), Pigweed ([9]; 125 g ai/ha): 90 | Plant response rating, Pigweed ([9]; 250 g ai/ha, scale 0-100): 100 | Plant response rating, Pigweed [9, 13]: 100 | Plant response rating, Soybean ([10]; 62 g ai/ha, scale 0 to 100): 40 | Plant response rating (0 = no effect, 100 = complete control), Soybean ([10]; 125 g ai/ha): 80 | Plant response rating, Soybean ([10]; 250 g ai/ha, scale 0-100): 100 | Plant response rating, Soybean [10, 13]: 100 | Sedge, Umbrella plant response rating ([11]; 62 g ai/ha, scale 0 to 100): 20 | Sedge, Umbrella plant response rating [11, 15]: 40 | Sedge, Umbrella plant response rating [11, 16]: 80 | Plant response rating, Sedge, Umbrella [11, 17]: 90 | Barnyardgrass plant response rating [12, 18]: 20 | Barnyardgrass plant response rating [12, 15]: 20 | Barnyardgrass plant response rating [12, 16]: 60 | Plant response rating, Barnyardgrass [12, 17]: 80
